What was measured:
myo-inositol levels = experiment: Cellular myo-inositol levels; assay type: cell-based; conditions: 30 mM LiCl or 25 µM ebselen
DENV-2 = experiment: IMPA1 silencing using siRNA, DENV-2 virus titer in imHC cells; assay type: cell-based; conditions: Dengue virus, DENV2, read-out: decrease of inhibitory effect of ebselen in si_IMPA1-silenced cells
[1] = target: T1, recombinant human inositol monophosphatase 1 (IMPA1) (Homo sapiens, UniProt P29218); experiment: In vitro enzymatic assay of IMPA activity; assay type: biochemical
T1 sequence (P29218 1-277): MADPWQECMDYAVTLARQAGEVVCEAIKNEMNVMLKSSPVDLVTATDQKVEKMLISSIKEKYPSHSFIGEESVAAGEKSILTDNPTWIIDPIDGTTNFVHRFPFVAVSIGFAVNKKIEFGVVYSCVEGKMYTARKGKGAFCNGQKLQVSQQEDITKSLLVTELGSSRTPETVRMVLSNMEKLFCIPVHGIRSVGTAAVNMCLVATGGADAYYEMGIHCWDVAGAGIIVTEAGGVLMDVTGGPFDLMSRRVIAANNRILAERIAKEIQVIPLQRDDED

PI(4)P and ZIKV-NS1 = experiment: Immunofluorescence of PI; assay type: cell-based; conditions: ZIKV-infected imHC cells, MOI 1, 48 hpi, ebselen treatment
recombinant human IMPA = conditions: read-out: inhibition constant (Ki); cited from earlier work
recombinant bovine IMPA = conditions: read-out: inhibition constant (Ki); cited from earlier work
IMPA = conditions: in vitro assays; cited from earlier work
PI(4)P = experiment: Immunofluorescence of PI; assay type: cell-based, human; conditions: imHC cells, 24 hours of treatment

Compound: O=c1c2ccccc2[se]n1-c1ccccc1 [Ebselen]
- myo-inositol levels vs untreated control (in words) (myo-inositol levels): significant reduction
- inhibition at 20 µM (DENV-2): ~16%
- IC50 [1]: 950 nM
- PI(4)P levels (in words) (PI(4)P and ZIKV-NS1): reduction
- ZIKV-NS1 protein expression (in words) (PI(4)P and ZIKV-NS1): reduction

Compound: CC(Oc1ccc(O)cc1)(P(=O)(O)O)P(=O)(O)O [L-690,330]
- Ki (recombinant human IMPA): 270 nM
- Ki (recombinant bovine IMPA): 190 nM
- potency relative to lithium (in words) (IMPA): approximately a thousand-fold greater potency than lithium

Compound: [Cl-].[Li+] [LiCl]
- myo-inositol levels vs untreated control (in words) (myo-inositol levels): significant reduction

Compound: O[C@H]1[C@H](O)[C@@H](O)[C@H](O)[C@@H](O)[C@H]1O [inositol]
- PI(4)P levels following the addition of inositol (in words) (PI(4)P): increased levels

Reference: PMC12749127 (Scientific Reports, 2025)
